Measurements as given in ChEMBL document CHEMBL1152232, “Muscarinic acetylcholine receptor antagonists: SAR and optimization of tyrosine ureas” (Bioorg Med Chem Lett, 2008).
pIC50: −log10 of the molar value.

How the values were obtained:
[1] = target: Muscarinic acetylcholine receptor M3 (Homo sapiens, UniProt P20309); assay: Antagonist activity at human recombinant muscarinic M3 receptor expressed in CHO cells assessed as inhibition of acetylcholine-induced intracellular Ca2+ mobilization by FLIPR assay; type: functional, cell-based
[2] = target: T1, Muscarinic acetylcholine receptor M1 (Homo sapiens, UniProt P11229); assay: Antagonist activity at human recombinant muscarinic M1 receptor expressed in CHO cells assessed as inhibition of acetylcholine-induced intracellular Ca2+ mobilization by FLIPR assay; type: functional, cell-based
T1 sequence (P11229 whole entry): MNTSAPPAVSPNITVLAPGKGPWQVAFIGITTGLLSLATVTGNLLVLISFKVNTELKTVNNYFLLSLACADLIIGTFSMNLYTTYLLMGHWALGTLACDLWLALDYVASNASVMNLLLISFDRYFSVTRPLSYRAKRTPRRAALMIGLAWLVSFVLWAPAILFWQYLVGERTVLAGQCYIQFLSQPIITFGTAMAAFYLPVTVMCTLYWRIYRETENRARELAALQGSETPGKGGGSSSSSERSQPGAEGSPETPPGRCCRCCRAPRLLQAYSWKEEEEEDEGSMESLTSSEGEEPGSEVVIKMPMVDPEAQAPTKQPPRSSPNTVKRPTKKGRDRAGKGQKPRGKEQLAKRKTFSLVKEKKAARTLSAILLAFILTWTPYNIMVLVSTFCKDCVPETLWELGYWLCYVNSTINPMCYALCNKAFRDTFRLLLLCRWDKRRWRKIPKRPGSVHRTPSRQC

[3] = target: T2, Muscarinic acetylcholine receptor M2 (Homo sapiens, UniProt P08172); assay: Antagonist activity at human recombinant muscarinic M2 receptor expressed in CHO cells coexpressing chimeric G protein Gqi5 assessed as inhibition of acetylcholine-induced intracellular Ca2+ mobilization by FLIPR assay; type: functional, cell-based
T2 sequence (P08172 whole entry): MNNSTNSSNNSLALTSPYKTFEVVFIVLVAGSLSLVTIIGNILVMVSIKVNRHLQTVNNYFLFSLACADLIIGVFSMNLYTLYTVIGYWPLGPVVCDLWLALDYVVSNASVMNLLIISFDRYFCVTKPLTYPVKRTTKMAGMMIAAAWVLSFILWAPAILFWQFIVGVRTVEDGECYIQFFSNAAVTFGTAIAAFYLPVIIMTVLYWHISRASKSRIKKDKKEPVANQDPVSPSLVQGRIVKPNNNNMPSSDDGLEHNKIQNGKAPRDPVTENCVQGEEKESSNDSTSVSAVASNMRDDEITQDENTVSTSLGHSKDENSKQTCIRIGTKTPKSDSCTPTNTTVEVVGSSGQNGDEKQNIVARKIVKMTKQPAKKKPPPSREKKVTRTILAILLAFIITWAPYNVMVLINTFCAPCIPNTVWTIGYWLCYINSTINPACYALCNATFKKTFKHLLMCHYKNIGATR

[4] = target: Muscarinic acetylcholine receptor M1 and M3 (Homo sapiens) (UniProt P20309+P11229); assay: Selectivity for human recombinant muscarinic M3 receptor over human recombinant muscarinic M1 receptor
[5] = target: Muscarinic acetylcholine receptors; M2 & M3 (Homo sapiens) (UniProt P20309+P08172); assay: Selectivity for human recombinant muscarinic M3 receptor over human recombinant muscarinic M2 receptor
Chain of Muscarinic acetylcholine receptors; M2 & M3 (Homo sapiens) (P20309 whole entry, looked up, one chain of several): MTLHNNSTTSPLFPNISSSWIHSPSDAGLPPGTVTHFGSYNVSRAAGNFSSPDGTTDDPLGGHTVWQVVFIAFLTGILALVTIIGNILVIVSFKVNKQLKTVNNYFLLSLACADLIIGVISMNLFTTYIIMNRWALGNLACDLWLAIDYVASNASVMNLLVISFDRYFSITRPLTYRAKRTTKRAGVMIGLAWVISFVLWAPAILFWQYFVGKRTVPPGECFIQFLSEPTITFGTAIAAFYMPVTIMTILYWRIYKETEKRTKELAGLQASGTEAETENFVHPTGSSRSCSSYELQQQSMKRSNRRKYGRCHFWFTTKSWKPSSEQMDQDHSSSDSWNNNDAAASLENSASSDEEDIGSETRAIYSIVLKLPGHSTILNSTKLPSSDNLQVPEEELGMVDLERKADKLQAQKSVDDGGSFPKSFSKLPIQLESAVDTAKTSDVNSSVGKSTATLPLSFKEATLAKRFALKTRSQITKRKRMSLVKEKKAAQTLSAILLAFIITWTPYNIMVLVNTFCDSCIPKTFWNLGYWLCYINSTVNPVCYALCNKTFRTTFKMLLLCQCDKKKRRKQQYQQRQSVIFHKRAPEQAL

Chain of Muscarinic acetylcholine receptor M1 and M3 (Homo sapiens) (P20309 whole entry, looked up, one chain of several): as above
Chain of Muscarinic acetylcholine receptor M3 (P20309 whole entry): as the sequence (P20309 whole entry, looked up, one chain of several) above

Row | pIC50 [1] | pIC50 [2] | pIC50 [3] | Selectivity ratio [4] | Selectivity ratio [5] | Kb ([1]; read-out: pA2 (converted)) | Kb ([2]; read-out: pA2 (converted)) | Kb ([3]; read-out: pA2 (converted)) | Structure (SMILES)
1 | 7.00 | 6.00 | 6.40 |  |  |  |  |  | O=C(Nc1ccc(C(=O)OCC2CC2)cc1)N[C@@H](Cc1ccc(O)cc1)C(=O)NC1CCN(Cc2ccc(O)cc2)C1 (some centres undefined)
2 |  |  |  | 100 | 10 |  |  |  | CCOC(=O)c1ccc(NC(=O)N[C@@H](Cc2ccc(O)cc2)C(=O)NC2CCN(Cc3ccc(O)cc3)C2)cc1 (mixture of isomers)
3 | 8.20 | 6.80 | 7.40 |  |  |  |  |  | CCOC(=O)c1ccc(NC(=O)N[C@@H](Cc2ccc(O)cc2)C(=O)N[C@H]2CC[N+](C)(Cc3ccc4c(c3)OCO4)C2)cc1 (some centres undefined)
4 | 7.30 | 6.60 | 7.90 |  |  |  |  |  | CCOC(=O)c1ccc(NC(=O)N[C@@H](Cc2ccc(C#N)cc2)C(=O)N[C@H]2CC[N+](C)(Cc3ccc4c(c3)OCO4)C2)cc1 (some centres undefined)
5 | 8.70 | 7.00 | 8.60 |  |  |  |  |  | CCOC(=O)c1ccc(NC(=O)N[C@@H](Cc2ccc(O)cc2)C(=O)N[C@H]2CCC[N+](C)(Cc3ccc(F)cc3)C2)cc1 (some centres undefined)
6 | 6.60 | < 5.50 | 5.90 |  |  |  |  |  | CC(C)COC(=O)c1ccc(NC(=O)N[C@@H](Cc2ccc(O)cc2)C(=O)NC2CCN(Cc3ccc(O)cc3)C2)cc1 (some centres undefined)
7 | 8.20 | 6.60 | 7.40 |  |  |  |  |  | CCOC(=O)c1ccc(NC(=O)N[C@@H](Cc2ccc(O)cc2)C(=O)N[C@H]2CC[N+](C)(Cc3ccc(O)cc3)C2)cc1 (some centres undefined)
8 | 7.80 | 7.90 | 8.30 |  |  |  |  |  | CCOC(=O)c1ccc(NC(=O)N[C@@H](Cc2ccc(-c3ccccc3)cc2)C(=O)N[C@H]2CC[N+](C)(Cc3ccc4c(c3)OCO4)C2)cc1 (some centres undefined)
9 | 7.80 | 5.90 | 7.80 |  |  |  |  |  | CCOC(=O)c1ccc(NC(=O)N[C@@H](Cc2ccc(N)cc2)C(=O)N[C@H]2CC[N+](C)(Cc3ccc4c(c3)OCO4)C2)cc1 (some centres undefined)

Second part, the molecule before the results:

Row | Structure (SMILES) | pIC50 [1] | pIC50 [2] | pIC50 [3] | Selectivity ratio [4] | Selectivity ratio [5] | Kb ([1]; read-out: pA2 (converted)) | Kb ([2]; read-out: pA2 (converted)) | Kb ([3]; read-out: pA2 (converted))
10 | CCOC(=O)c1ccc(NC(=O)N[C@@H](Cc2ccc(O)cc2)C(=O)NC2CCN(Cc3cccc(Cl)c3)C2)cc1 (some centres undefined) | 8.10 | 5.90 | 6.90 | 100 | 10 |  |  | 
11 | CCOC(=O)c1ccc(NC(=O)N[C@@H](Cc2ccc(O)cc2)C(=O)NC2CCN(Cc3ccccc3)C2)cc1 (some centres undefined) | 7.80 | 5.70 | 6.70 | 100 | 10 |  |  | 
12 | CCOC(=O)c1ccc(NC(=O)N[C@@H](Cc2ccc(O)cc2)C(=O)NC2CCN(Cc3ccc4c(c3)OCO4)C2)cc1 (some centres undefined) | 7.50 | 6.00 | 6.70 | 100 | 10 |  |  | 
13 | CCOC(=O)c1ccc(NC(=O)N[C@@H](Cc2ccc(O)cc2)C(=O)NC2CCN(CC3CC3)C2)cc1 (some centres undefined) | 7.60 | 6.20 | 7.00 | 100 | 10 |  |  | 
14 | CCN(CC)C(=O)c1ccc(NC(=O)N[C@@H](Cc2ccc(O)cc2)C(=O)NC2CCN(Cc3ccc(C#N)cc3)C2)cc1 (some centres undefined) | 6.40 | < 5.50 | < 5.50 |  |  |  |  | 
15 | CNC(=O)c1ccc(NC(=O)N[C@@H](Cc2ccc(O)cc2)C(=O)NC2CCN(Cc3ccc(C#N)cc3)C2)cc1 (some centres undefined) | 5.60 | < 5.50 | < 5.50 |  |  |  |  | 
16 | CC(C)OC(=O)c1ccc(NC(=O)N[C@@H](Cc2ccc(O)cc2)C(=O)N[C@H]2CCC[N+](CC3CC3)(CC3CC3)C2)cc1 |  |  |  |  |  | 0.631 nM | 39.8 nM | 5.01 nM
17 | CCCNC(=O)c1ccc(NC(=O)N[C@@H](Cc2ccc(O)cc2)C(=O)NC2CCN(Cc3ccc(C#N)cc3)C2)cc1 (some centres undefined) | 6.30 | < 5.50 | < 5.50 |  |  |  |  | 
18 | N#Cc1ccc(CN2CCC(NC(=O)[C@H](Cc3ccc(O)cc3)NC(=O)Nc3ccc(C(=O)Nc4ccccc4)cc3)C2)cc1 (some centres undefined) | 6.30 | < 5.50 | < 5.50 |  |  |  |  | 
19 | CCOC(=O)c1ccc(NC(=O)N[C@@H](Cc2ccc(OC)c(OC)c2)C(=O)N[C@H]2CC[N+](C)(Cc3ccc4c(c3)OCO4)C2)cc1 (some centres undefined) | 5.90 | 6.20 | 7.30 |  |  |  |  | 
